# Test results reported in patent US11820835B2, “Cyclic tetrapeptide analogs” (University of Kansas, priority 2018, dated 2023).
# Read-outs that look alike come from different tables or passages of the source. Non-standard residues stand in square brackets, D forms with d. Residues, ends and D or L forms follow the SMILES beside them. 2Pal = N[C@@H](Cc1ccccn1)C(=O)O; 3Pal = N[C@@H](Cc1cccnc1)C(=O)O; 4Pal = N[C@@H](Cc1ccncc1)C(=O)O
# What was measured:
# [1] = tested on: kappa opioid receptor (KOR); details: cited from earlier work
# [2] = biological target: KOR (kappa opioid receptor) (Homo sapiens, UniProt P41145); test: Radioligand binding assay, KOR affinity; details: for Selectivity (KOR/MOR): ratio of KOR and MOR Ki; for Ki: read-out: KOR Ki (nM ± SEM)
# Method: (§1) The analogs were evaluated in vivo in an analgesic assay (mouse 55° C. warm-water tail withdrawal assay) for opioid agonist and antagonist activity. Representative analogs were evaluated in a conditioned place preference (CPP) assay for their ability to prevent stress-induced relapse to cocaine-seeking behavior. Further, representative analogs were evaluated for opioid receptor affinity in radioligand binding assays (Table 2).
# [3] = biological target: T1, kappa opioid receptor (KOR) (Mus musculus, UniProt P33534); details: p.o.; Eans et al., 2013; cited from earlier work
# T1 construct: from tissue; host or cells: living mouse (in vivo; CNS)
# mice [4] = details: p.o., CPP assay; Eans et al., 2013; cited from earlier work
# MOR (mu opioid receptor) = MOR (mu opioid receptor) (Homo sapiens, UniProt P35372); test: Radioligand binding assay, MOR affinity; details: read-out: MOR Ki (nM ± SEM)
# Method: as §1
# [5] = biological target: T1, kappa opioid receptor (KOR); test: Mouse 55° C. warm-water tail withdrawal assay, opioid antagonist activity (antagonism of KOR agonist U50,488); type: in vivo; details: for duration of KOR antagonism of centrally administered U50,488: 30 mg/kg p.o.; for selectivity of opioid antagonism (KOR vs. MOR and DOR agonists): U50,488, morphine, SNC-80; for antagonism of centrally (i.c.v.) administered KOR agonist U50,488: peptide given orally
# Method: as §1
# mice [6] = test: Conditioned place preference (CPP) assay, stress-induced relapse to cocaine-seeking behavior; type: in vivo, mouse; details: p.o.
# Method: as §1
# [7] = Locomotion following oral administration; type: in vivo; details: 10 or 30 mg/kg p.o.
# Text: (§2) FIGS. 6A-B provides the results of studies on locomotion and respiration following oral administration of JVA-3620.
# (§3) FIG. 7A-B provides the results of studies on locomotion and respiration following oral administration of JVA-3628.
# [8] = Respiration following oral administration; type: in vivo; details: 10 or 30 mg/kg p.o.
# Text: as §2, §3
# mice [9] = test: Mouse 55° C. warm-water tail withdrawal assay, antinociception (opioid agonist activity); type: in vivo
# Method: as §1
# Sequence of MOR (mu opioid receptor) (P35372 whole entry): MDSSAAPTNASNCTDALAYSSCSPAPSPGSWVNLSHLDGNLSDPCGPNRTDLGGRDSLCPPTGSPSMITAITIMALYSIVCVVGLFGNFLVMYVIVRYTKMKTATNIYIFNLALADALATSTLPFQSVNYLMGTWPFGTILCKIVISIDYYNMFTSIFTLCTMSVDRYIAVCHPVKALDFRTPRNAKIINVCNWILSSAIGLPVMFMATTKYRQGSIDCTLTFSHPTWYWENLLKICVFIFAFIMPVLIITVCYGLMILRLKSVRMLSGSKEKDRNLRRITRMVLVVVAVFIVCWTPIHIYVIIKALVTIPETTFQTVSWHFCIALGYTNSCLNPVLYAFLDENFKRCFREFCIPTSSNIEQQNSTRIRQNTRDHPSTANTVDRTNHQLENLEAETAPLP
# Sequence of KOR (kappa opioid receptor) (P41145 whole entry): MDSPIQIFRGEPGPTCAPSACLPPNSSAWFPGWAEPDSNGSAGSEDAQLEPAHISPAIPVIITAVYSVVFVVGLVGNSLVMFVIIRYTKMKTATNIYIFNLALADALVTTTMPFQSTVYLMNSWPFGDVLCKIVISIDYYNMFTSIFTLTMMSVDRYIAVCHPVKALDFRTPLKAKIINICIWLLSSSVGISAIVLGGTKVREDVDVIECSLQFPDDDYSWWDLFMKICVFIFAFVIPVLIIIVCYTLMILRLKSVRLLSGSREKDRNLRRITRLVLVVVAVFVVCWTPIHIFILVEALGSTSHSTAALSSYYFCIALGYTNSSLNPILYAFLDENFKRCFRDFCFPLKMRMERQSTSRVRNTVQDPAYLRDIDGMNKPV
# T1 sequence (P33534 whole entry): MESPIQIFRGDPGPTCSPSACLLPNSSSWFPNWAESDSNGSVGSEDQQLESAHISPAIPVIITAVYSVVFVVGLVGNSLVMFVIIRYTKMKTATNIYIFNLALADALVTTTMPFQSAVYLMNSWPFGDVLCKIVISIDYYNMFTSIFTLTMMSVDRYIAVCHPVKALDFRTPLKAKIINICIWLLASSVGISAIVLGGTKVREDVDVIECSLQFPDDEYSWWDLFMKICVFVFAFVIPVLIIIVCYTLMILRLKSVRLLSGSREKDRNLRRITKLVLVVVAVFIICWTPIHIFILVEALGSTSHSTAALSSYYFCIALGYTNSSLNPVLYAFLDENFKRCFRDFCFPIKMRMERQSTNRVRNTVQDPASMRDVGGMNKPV
Compound,Selectivity (KOR/MOR) [2],Ki [2],Ki (MOR (mu opioid receptor)),KOR antagonism ([5]; i.c.v. administration),antinociception (agonist activity) (mice [9]; i.c.v. administration),also measured
CC(C)[C@@H](CN1CC[C@@](C)(c2cccc(O)c2)[C@@H](C)C1)NC(=O)[C@H]1Cc2ccc(O)cc2CN1 [JDTic],–,–,–,–,–,duration of activity after a single dose ([1]; in vivo): weeks in some species
"O=C1N[C@H](Cc2c[nH]c3ccccc23)C(=O)N[C@@H](Cc2ccccc2)C(=O)N2CCC[C@@H]2C(=O)N[C@H]1Cc1ccccc1 [JVA-2802, cyclo[Phe′-D-Pro-Phe^3-D-Trp^4]] (cyclo(F[dP]F[dW]))",1/12,21.8 nM,–,–,–,"oral dose required to significantly antagonize centrally administered U50,488 [3]: 30 mg/kg; oral dose preventing stress-induced relapse of cocaine-seeking behavior (mice [4]): 60 mg/kg; duration of action ([1]; Ross et al., 2012, Eans et al., 2013): < 18 h"
O=C1N[C@H](Cc2ccccc2)C(=O)N[C@@H](Cc2ccccc2)C(=O)N2CCC[C@@H]2C(=O)N[C@H]1Cc1ccccc1 [JVA-3620] (cyclo(F[dP]F[dF])),1/38,28.9 ± 4.9 nM,1100 ± 80 nM,exhibited KOR antagonism,–,"duration of KOR antagonism of centrally administered U50,488 [5]: 6 to 12 h; selectivity of opioid antagonism (KOR vs. MOR and DOR agonists) [5]: selectively antagonized the KOR agonist U50,488, but not the mu opioid receptor agonist morphine or the delta opioid receptor antagonist SNC-80; KOR antagonism ([5]; oral (p.o.) administration): exhibited KOR antagonism; oral dose required to significantly antagonize centrally administered U50,488 ([5]; p.o.): 10 mg/kg; antagonism of centrally (i.c.v.) administered KOR agonist U50,488 [5]: antagonized centrally (i.c.v.) administered KOR agonist; oral dose preventing stress-induced relapse of cocaine-seeking behavior (mice [6]): 30 mg/kg; locomotion [7]: does not produce hyperlocomotion like morphine, but instead can significantly decrease locomotion during the first hour; respiration [8]: decreases respiration during the first hour"
O=C1N[C@H](Cc2c[nH]c3ccccc23)C(=O)N[C@@H](Cc2c[nH]cn2)C(=O)N2CCC[C@@H]2C(=O)N[C@H]1Cc1ccccc1 [JVA-3622] (cyclo(H[dP]F[dW])),–,667 ± 470 nM,2500 ± 510 nM,–,–,–
O=C1N[C@H](Cc2c[nH]c3ccccc23)C(=O)N[C@@H](Cc2ccccc2)C(=O)N2CCC[C@@H]2C(=O)N[C@H]1Cc1c[nH]cn1 [JVA-3623] (cyclo(F[dP]H[dW])),–,67.7 ± 9.2 nM,366 ± 98 nM,–,–,–
O=C1N[C@H](Cc2c[nH]c3ccccc23)C(=O)N[C@@H](Cc2ccccc2)C(=O)N2CCC[C@@H]2C(=O)N[C@H]1Cc1cccnc1 [JVA-3624] (cyclo(F[dP][3Pal][dW])),1/23,8.34 ± 1.48 nM,191 ± 39 nM,not KOR antagonism,exhibits antinociception,antinociception ED50 (mice [9]; i.c.v.): 1.13 nmol
O=C1N[C@H](Cc2c[nH]c3ccccc23)C(=O)N[C@@H](Cc2ccccc2)C(=O)N2CCC[C@@H]2C(=O)N[C@H]1Cc1ccncc1 [JVA-3625] (cyclo(F[dP][4Pal][dW])),1/12,30.7 ± 6.8 nM,371 ± 81 nM,–,–,–
O=C1N[C@H](Cc2c[nH]c3ccccc23)C(=O)N[C@@H](Cc2ccccc2)C(=O)N2CCC[C@@H]2C(=O)N[C@H]1Cc1ccccn1 [JVA-3626] (cyclo(F[dP][2Pal][dW])),1/20,82.3 ± 13.8 nM,1610 ± 590 nM,–,–,–
O=C1N[C@H](Cc2c[nH]c3ccccc23)C(=O)N[C@@H](Cc2ccccn2)C(=O)N2CCC[C@@H]2C(=O)N[C@H]1Cc1ccccc1 [JVA-3627] (cyclo([2Pal][dP]F[dW])),1/43,58.4 ± 9.3 nM,2530 ± 460 nM,–,–,–
O=C1N[C@H](Cc2c[nH]c3ccccc23)C(=O)N[C@@H](Cc2cccnc2)C(=O)N2CCC[C@@H]2C(=O)N[C@H]1Cc1ccccc1 [JVA-3628] (cyclo([3Pal][dP]F[dW])),1/24,41.8 ± 16.3 nM,988 ± 146 nM,selective KOR antagonism,–,"duration of KOR antagonism of centrally administered U50,488 [5]: 12 to 24 h; selectivity of opioid antagonism (KOR vs. MOR and DOR agonists) [5]: opioid antagonism is selective for KOR; KOR antagonism ([5]; oral (p.o.) administration): antagonizing both peripherally and administered KOR agonist; antagonism of centrally (i.c.v.) administered KOR agonist U50,488 [5]: exhibits kappa opioid receptor (KOR) antagonism of centrally administered KOR agonist activity; oral dose preventing stress-induced relapse of cocaine-seeking behavior (mice [6]): 30 mg/kg; locomotion [7]: does not produce hyperlocomotion like morphine, but instead can significantly decrease locomotion during the first hour; respiration [8]: decreases respiration during the first hour"
O=C1N[C@H](Cc2c[nH]c3ccccc23)C(=O)N[C@@H](Cc2ccncc2)C(=O)N2CCC[C@@H]2C(=O)N[C@H]1Cc1ccccc1 [JVA-3629] (cyclo([4Pal][dP]F[dW])),1/86,32 ± 4.1 nM,2740 ± 310 nM,–,–,–
"[D-2′-Pal^4]CJ-15,208 [JVA-3671]",–,–,–,exhibits KOR antagonist activity,exhibits antinociception,opioid receptor mediating the antinociception (mice [9]; i.c.v. administration): mediated by delta opioid receptors (DOR)
"[D-Bip^4]CJ-15,208 [JVA-3667]",–,–,–,weak KOR antagonist,agonist,selectivity of opioid antagonism (KOR vs. MOR and DOR agonists) [5]: selective for KOR; KOR antagonism ([5]; oral (p.o.) administration): only KOR antagonism
"[D-His^4]CJ-15,208 [JVA-3670]",–,–,–,not KOR antagonist,agonist,KOR antagonism ([5]; oral (p.o.) administration): only KOR antagonism
"[D-Tyr^4]CJ-15,208 [JVA-3669]",–,–,–,not KOR antagonist,agonist,–
"[D-hPhe^4]CJ-15,208 [JVA-3668]",–,–,–,not KOR antagonist,agonist,–
